In patent US20210107874A1, “PHARMACEUTICAL FORMULATION OF CROTONYLAMINOPYRIDINE SALT” (priority 2017, published 2021):
Several values for one entry are separate records, joined by “and”; a condition that tells them apart may be missing. Identical values can stand only once.

Key:
[1] = Solubility of synthesized tartrate salt and free base of compound 4; assay type: physicochemical; conditions: free base; read-out: solubility
Experimental: The free base of compound 4 has a solubility of 0.8 mg/ml

[2] = Solubility of salts of compound 4: compound added in portions to acid in water until no clear solution; assay type: physicochemical; conditions: for Dissolved g of 4 / pH: clear solution
Experimental: A defined amount of an acid (1.0 g) was weighed into a flask and dissolved in water (10 ml). […] The pH value was measured after each addition.
Thus 8 g of compound 4 in 10 ml of water can be dissolved.

[3] = Stability tests of solutions of compound 4 with equimolar acids in water; assay type: physicochemical; conditions: for solubility: water with equimolar acid, thermodynamic from solid
Experimental: Equimolar amounts of compound 4 and acids were diluted with water: Water was added until all residues were dissolved. 200, 100 and 50 mg of compound 4 was used, each amount was combined with each acid of the following list. The solutions were equilibrated at room temperature and then held for 7 days at room temperature and thereafter 7 days at 8° C.

[4] = PK studies of formulations, plasma by HPLC-MS/MS; assay type: in vivo; conditions: SC, Cattle
Experimental: The following formulations were prepared and administered to animals. Blood samples were collected at pre-defined time points and the amount of compound present in plasma at the time of sampling was determined by HPLC-MS/MS. Pharmacokinetic parameters were then calculated: Cmax, Tmax, Tlast, AUC. [table]

[5] = 0.5 g Acetic acid in 10 ml water
[6] = 1.0 g Citric acid in 10 ml water
[7] = 1.0 g Tartaric acid in 10 ml water
[8] = Form O62.5 (FormO type: L-tartaric acid, NaOH to pH 4.4, water), 1.25 mg/kg

For `CCOc1cc(NCCNC(=O)/C=C/C(F)(F)F)ccn1` [Compound 4, (E)-N-[2-[(2-ethoxy-4-pyridyl)amino]ethyl]-4,4,4-trifluoro-but-2-enamide], the solubility [1] was 0.8 mg/mL, the “Dissolved g of 4” value [2, 5] was 1 g and the pH [2, 5] was 4.6. The “Dissolved g of 4” value [2, 6] was 2.5 g, the pH [2, 6] was 4.4 and the “Dissolved g of 4” value ([2]; 1.0 g Maleic acid in 10 ml water) was <0.1 g. The “Dissolved g of 4” value [2, 7] was 3.5 g, the pH [2, 7] was 4.2 and the appearance of solution ([2]; 2 g compound 4 and 1 g tartaric acid in 2.5 ml water) was “clear solution”. The “amount that can be dissolved in 10 ml of water” value ([2]; with tartaric acid, scaled from 2 g in 2.5 ml) was 8 g, the pH ([3]; equimolar Citric acid in water) was 3.41 and the pH ([3]; equimolar D-glucoronic acid in water) was 4.15. For the same compound, the pH ([3]; equimolar Ethanesulfonic acid in water) was 1.23, the pH ([3]; equimolar Fumaric acid in water) was 3.74 and the pH ([3]; equimolar Hydrochloric acid in water) was 1.15. The pH ([3]; equimolar L-lactic acid in water) was 4.28, the pH ([3]; equimolar Methanesulfonic acid in water) was 1.28 and the pH ([3]; equimolar Oxalic acid in water) was 2.14. The pH ([3]; equimolar Sulfuric acid in water) was 0.06, the pH ([3]; equimolar Tartaric acid in water) was 3.35 and the solubility ([3]; pH 0.06, water, equimolar Sulfuric acid in water) was > 200 mg/mL. The solubility ([3]; pH 1.15, water, equimolar Hydrochloric acid in water) was > 200 mg/mL, the solubility ([3]; pH 1.23, water, equimolar Ethanesulfonic acid in water) was > 200 mg/mL and the solubility ([3]; pH 1.28, water, equimolar Methanesulfonic acid in water) was > 200 mg/mL. For the same compound, the solubility ([3]; pH 2.14, water, equimolar Oxalic acid in water) was > 200 mg/mL, the solubility ([3]; water, equimolar Citric acid in water) was > 200 mg/mL and the solubility ([3]; water, equimolar D-glucoronic acid in water) was > 100 mg/mL. The solubility ([3]; water, equimolar Fumaric acid in water) was > 200 mg/mL, the solubility ([3]; water, equimolar L-lactic acid in water) was > 100 mg/mL and the solubility ([3]; water, equimolar Phosphoric acid in water) was > 100 mg/mL. The solubility ([3]; water, equimolar Tartaric acid in water) was > 200 mg/mL, the solubility ([3]; water, equimolar acetic acid in water) was < 50 mg/mL and the solubility ([3]; water, equimolar benzenesulfonic acid in water) was < 50 mg/mL. For the same compound, the solubility ([3]; water, equimolar benzoic acid in water) was < 50 mg/mL, the solubility ([3]; water, equimolar ethanedisulfonic acid in water) was < 50 mg/mL and the solubility ([3]; water, equimolar isethionic acid in water) was > 200 mg/mL. For the same compound, the solubility ([3]; water, equimolar maleic acid in water) was < 50 mg/mL, the solubility ([3]; water, equimolar malonic acid in water) was < 50 mg/mL and the solubility ([3]; water, equimolar p-toluenesulfonic acid in water) was < 50 mg/mL. The solubility ([3]; water, equimolar saccharin in water) was < 50 mg/mL, the solubility ([3]; water, equimolar succinic acid in water) was < 50 mg/mL and the Tlast ([4]; Form A50 (NMP, propylene glycol, water), 1.25 mg/kg) was 6.5 h. The Tlast ([4]; Form B62.5 (dimethyl acetamide, propylene glycol, water), 1.25 mg/kg) was 5.33 h, the AUC [4, 8] was 372 ng·h/mL and the Cmax [4, 8] was 428 ng/mL. The Tlast [4, 8] was 4 h and 3 h, the Tmax [4, 8] was 18.6 min and the Tlast ([4]; FormC62.5 (propylene glycol, ethanol, Transcutol P), 1.25 mg/kg) was 10.7 h. For the same compound, the Tlast ([4]; FormD62.5 (PEG 300, ethanol, Transcutol P), 1.25 mg/kg) was 4 h, the Tlast ([4]; FormE62.5 (polyethylene glycol 300, ethyl alcohol 96%, water), 1.25 mg/kg) was 5 h and the Tlast ([4]; FormF62.5 (polyethylene glycol, 1-octanol, 2-pyrrolidone), 1.25 mg/kg) was 8 h. It also gave a Tlast ([4]; FormG62.5 (benzyl alcohol, ethyl alcohol 96%, polyethylene glycol 300), 1.25 mg/kg) of 5.33 h, a Tlast ([4]; FormH62.5 (DMA, DMSO, 2-pyrrolidone), 1.25 mg/kg) of 4 h and a Tlast ([4]; FormJ62.5 (DMSO, 2-pyrrolidone, ethyl lactate), 1.25 mg/kg) of 4 h. The Tlast ([4]; FormK62.5 (2-pyrrolidone, Transcutol P, ethyl lactate), 1.25 mg/kg) was 4 h, the Tlast ([4]; FormL50 (DMA, propylene glycol, water), 1.25 mg/kg) was 4 h and the Tlast ([4]; FormM62.5 (L-tartaric acid, sodium hydroxide up to pH 4.6, water), 1.25 mg/kg) was 3.33 h. For the same compound, the Tlast ([4]; FormO60 (FormO type: L-tartaric acid, NaOH to pH 4.4, water), 1 mg/kg) was 2.67 h, the Tlast ([4]; FormP62.5 (L-tartaric acid, 2-pyrrolidone, NaOH, water), 1.25 mg/kg) was 6.67 h and the Tlast ([4]; FormQ62.5 (L-tartaric acid, sodium carboxymethyl cellulose, NaOH up to pH 4.3, water), 1.25 mg/kg) was 4 h.
